Assay: pH
Format: physicochemical
Details: free propionic acid, stated in the discussion

Structure (SMILES): CCC(=O)O [free propionic acid, propionic acid]
- pH: less than 2
